Measured values taken from US12268666B2, “Spray-dried dispersions, formulations, and polymorphs of (S)-5-amino-3-(4-((5-fluoro-2-methoxybenzamido)methyl)phenyl)-1-(1,1,1-trifluoropropan-2-yl)-1H-pyrazole-4-carboxamide” (Loxo Oncology, Inc., priority 2018, dated 2025).
pIC50: −log10 of the molar value.

Legend:
[1] = biological target: T1, MEK2 (Homo sapiens, UniProt P36507); assay: Kinase selectivity, radiolabeled ATP activity assay; assay type: biochemical
T1 construct: purchased Reaction Biology
Description: (§1) Each assay is performed at an ATP concentration close to the Km for each enzyme. […] BRK, CSK, ERBB4, FYN, MEK1, MEK2, TXK, and YES1 The inhibitory activity of the compound of Formula I on the enzymatic activity of these kinases and TEC is determined using a radiolabeled ATP activity assay conducted with an ATP concentration near the ATP Km for each enzyme. After co-incubation with a serial dilution of the compound of Formula I, the quantity of ^33P incorporated into a peptide substrate is measured and the data analyzed using standard curve fitting methods.

[2] = biological target: TEC (Homo sapiens, UniProt P42680); assay: as above; assay type: biochemical; settings: ATP near Km
Description: as §1

[3] = biological target: T2, TXK (Homo sapiens, UniProt P42681); assay: as above; assay type: biochemical
T2 construct: purchased Reaction Biology
Description: as §1

[4] = biological target: T3, YES1 (Homo sapiens, UniProt P07947); assay: as above; assay type: biochemical
T3 construct: purchased Reaction Biology
Description: as §1

[5] = Aqueous solubility at different pH values; assay type: physicochemical
[6] = 1.0 μM compound, ATP close to Km, read-out: Percent of Control (POC)

T1 sequence (P36507 whole entry): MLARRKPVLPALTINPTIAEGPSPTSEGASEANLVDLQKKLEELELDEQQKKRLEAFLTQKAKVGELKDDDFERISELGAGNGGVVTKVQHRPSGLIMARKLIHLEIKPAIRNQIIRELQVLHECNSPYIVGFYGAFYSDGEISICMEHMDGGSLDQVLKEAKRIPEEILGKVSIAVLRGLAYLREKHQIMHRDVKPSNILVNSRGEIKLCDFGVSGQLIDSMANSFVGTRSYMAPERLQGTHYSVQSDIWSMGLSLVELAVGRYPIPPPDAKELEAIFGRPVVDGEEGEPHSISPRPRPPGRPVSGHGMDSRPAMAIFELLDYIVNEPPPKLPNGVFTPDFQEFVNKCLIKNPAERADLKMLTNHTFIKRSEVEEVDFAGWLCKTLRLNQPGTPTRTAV
T3 sequence (P07947 whole entry): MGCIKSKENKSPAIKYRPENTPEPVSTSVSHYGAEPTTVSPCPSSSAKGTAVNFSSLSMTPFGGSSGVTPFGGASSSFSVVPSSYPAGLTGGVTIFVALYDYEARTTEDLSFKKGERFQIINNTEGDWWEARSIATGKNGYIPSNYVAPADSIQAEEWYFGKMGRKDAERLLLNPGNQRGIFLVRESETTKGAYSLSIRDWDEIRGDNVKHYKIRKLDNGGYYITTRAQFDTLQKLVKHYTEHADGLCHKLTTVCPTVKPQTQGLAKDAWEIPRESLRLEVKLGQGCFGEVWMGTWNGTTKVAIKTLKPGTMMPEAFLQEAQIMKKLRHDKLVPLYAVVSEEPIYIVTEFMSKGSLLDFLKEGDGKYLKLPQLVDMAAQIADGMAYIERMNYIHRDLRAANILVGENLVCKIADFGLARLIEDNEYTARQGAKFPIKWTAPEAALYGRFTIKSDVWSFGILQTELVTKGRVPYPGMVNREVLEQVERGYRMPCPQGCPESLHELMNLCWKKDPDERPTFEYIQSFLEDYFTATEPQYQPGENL
T2 sequence (P42681 whole entry): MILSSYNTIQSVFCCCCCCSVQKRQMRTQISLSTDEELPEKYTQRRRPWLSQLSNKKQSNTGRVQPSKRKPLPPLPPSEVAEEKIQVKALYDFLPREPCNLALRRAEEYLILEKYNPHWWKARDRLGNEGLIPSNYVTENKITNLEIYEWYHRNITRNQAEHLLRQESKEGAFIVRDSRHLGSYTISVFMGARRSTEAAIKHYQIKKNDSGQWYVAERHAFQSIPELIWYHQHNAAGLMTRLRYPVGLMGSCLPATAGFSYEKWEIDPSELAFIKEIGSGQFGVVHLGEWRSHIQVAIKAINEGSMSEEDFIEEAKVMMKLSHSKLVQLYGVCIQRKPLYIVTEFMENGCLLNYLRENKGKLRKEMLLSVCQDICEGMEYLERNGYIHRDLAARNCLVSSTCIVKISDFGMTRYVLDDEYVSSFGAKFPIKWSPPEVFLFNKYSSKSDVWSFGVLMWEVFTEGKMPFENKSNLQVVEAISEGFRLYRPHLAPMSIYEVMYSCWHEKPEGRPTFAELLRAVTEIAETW
Sequence of TEC (P42680 whole entry): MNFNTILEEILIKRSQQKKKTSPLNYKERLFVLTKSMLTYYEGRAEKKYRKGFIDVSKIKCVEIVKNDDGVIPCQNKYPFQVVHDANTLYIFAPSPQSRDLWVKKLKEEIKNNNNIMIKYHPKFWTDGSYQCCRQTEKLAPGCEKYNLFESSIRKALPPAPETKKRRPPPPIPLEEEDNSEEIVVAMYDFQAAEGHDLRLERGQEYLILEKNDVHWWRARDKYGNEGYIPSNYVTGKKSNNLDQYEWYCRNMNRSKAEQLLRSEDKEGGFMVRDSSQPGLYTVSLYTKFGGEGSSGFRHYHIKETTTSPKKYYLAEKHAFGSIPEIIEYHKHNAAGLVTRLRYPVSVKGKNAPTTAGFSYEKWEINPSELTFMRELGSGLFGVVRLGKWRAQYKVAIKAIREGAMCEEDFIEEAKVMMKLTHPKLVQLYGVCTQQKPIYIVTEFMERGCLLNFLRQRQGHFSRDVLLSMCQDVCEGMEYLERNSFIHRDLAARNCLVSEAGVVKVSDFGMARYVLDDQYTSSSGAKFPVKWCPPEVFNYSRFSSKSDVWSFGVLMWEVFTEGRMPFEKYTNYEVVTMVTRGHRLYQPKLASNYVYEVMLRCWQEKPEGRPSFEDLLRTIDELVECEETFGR

With `COc1ccc(F)cc1C(=O)NCc1ccc(-c2nn([C@@H](C)C(F)(F)F)c(N)c2C(N)=O)cc1` [compound of Formula I, (S)-5-amino-3-(4-((5-fluoro-2-methoxybenzamido)methyl)phenyl)-1-(1,1,1-trifluoropropan-2-yl)-1H-pyrazole-4-carboxamide] the remaining activity at 1 µM [1, 6] was < 50%, the pIC50 ([1]; ATP near Km) was 7.08 and the pIC50 [2] was 5.91. The remaining activity at 1 µM [3, 6] was < 50%, the pIC50 ([3]; ATP near Km) was 6.68 and the remaining activity at 1 µM [4, 6] was < 50%. The pIC50 ([4]; ATP near Km) was 6.80, the solubility ([5]; aqueous solution, aqueous buffer, between pH 1 to pH 10) was 14 to 17 µg/mL and the solubility ([5]; aqueous solution, aqueous buffer, pH 3, actual media pH 3.03) was 14 µg/mL. For the same molecule, the solubility ([5]; aqueous solution, aqueous buffer, pH 4, actual media pH 4.04) was 14 µg/mL, the solubility ([5]; aqueous solution, aqueous buffer, pH 6, actual media pH 6.04) was 14 µg/mL and the solubility ([5]; aqueous solution, aqueous buffer, pH 8, actual media pH 8.02) was 14 µg/mL. The solubility ([5]; aqueous solution, aqueous buffer, pH 10, actual media pH 9.98) was 14 µg/mL, the solubility ([5]; aqueous solution, simulated gastric fluid, pH 1.5, actual media pH 1.49) was 15 µg/mL and the solubility ([5]; aqueous solution, simulated gastric fluid, pH 2, actual media pH 2.06) was 15 µg/mL. The solubility ([5]; simulated gastric fluid, (0.1 N HCl) pH 1, actual media pH 1.09) was 17 µg/mL.
